BindingDB's records for doi:10.1021/acs.jmedchem.6b01300 (Invivogen, 2016)

Key:
[1] = biological target: T1, Stimulator of interferon genes protein (Homo sapiens, UniProt Q86WV6); assay: Activation of STING in human THP-1-Dual cells assessed as induction of type I IFNs by measuring stimulation of IRF pathway incubated for 48 hrs by luciferase reporter gene assay
[2] = biological target: T1, Stimulator of interferon genes protein; assay: Activation of STING in human THP-1-Dual cells assessed as induction of type I IFNs by measuring stimulation of NF-kappaB pathway incubated for 48 hrs by luciferase reporter gene assay

T1 sequence (Q86WV6 whole entry): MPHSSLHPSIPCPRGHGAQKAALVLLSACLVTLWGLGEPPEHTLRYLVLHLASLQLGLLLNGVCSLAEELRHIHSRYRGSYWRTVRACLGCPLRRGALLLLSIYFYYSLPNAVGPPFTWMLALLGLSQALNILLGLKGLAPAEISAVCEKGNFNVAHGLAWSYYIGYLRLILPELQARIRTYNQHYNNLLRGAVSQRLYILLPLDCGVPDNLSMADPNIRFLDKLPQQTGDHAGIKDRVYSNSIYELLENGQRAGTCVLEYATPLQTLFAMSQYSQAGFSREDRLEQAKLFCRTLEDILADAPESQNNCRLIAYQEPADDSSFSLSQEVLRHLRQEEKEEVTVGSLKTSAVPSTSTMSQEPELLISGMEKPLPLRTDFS

| SMILES | EC50 [1] [µM] | EC50 [2] [µM] |
| --- | --- | --- |
| Nc1ncnc2c1ncn2[C@H]1C[C@@H]2OP(=O)(O)OC[C@H]3O[C@@H](n4cnc5c(O)ncnc54)C[C@@H]3OP(=O)(O)OC[C@H]2O1 |  | 62.3 |
| Nc1ncnc2c1ncn2[C@@H]1O[C@@H]2COP(=O)(O)O[C@H]3C[C@H](n4cnc5c(O)ncnc54)O[C@@H]3COP(=O)(O)O[C@H]2[C@H]1F | 1.4 | 25.5 |
| Nc1ncnc2c1ncn2[C@H]1C[C@@H]2OP(=O)(O)OC[C@H]3O[C@@H](n4cnc5c(O)ncnc54)[C@H](F)[C@@H]3OP(=O)(O)OC[C@H]2O1 | 2.3 | 32.3 |

Compounds with a lower EC50 [2], results first:

| EC50 [1] [µM] | EC50 [2] [µM] | SMILES |
| --- | --- | --- |
| 1.6 | 7.8 | Nc1ncnc2c1ncn2[C@@H]1O[C@@H]2COP(=O)(S)O[C@H]3[C@@H](O)[C@H](n4cnc5c(O)ncnc54)O[C@@H]3COP(=O)(S)O[C@H]2[C@H]1O (stereo partly specified) |
| 1.1 | 15.4 | Nc1ncnc2c1ncn2[C@@H]1O[C@@H]2COP(=O)(O)O[C@H]3[C@@H](F)[C@H](n4cnc5c(O)ncnc54)O[C@@H]3COP(=O)(O)O[C@H]2[C@H]1F |
| 0.3 | 1.6 | Nc1ncnc2c1ncn2[C@@H]1O[C@@H]2COP(=O)(S)O[C@H]3[C@@H](F)[C@H](n4cnc5c(O)ncnc54)O[C@@H]3COP(=O)(S)O[C@H]2[C@H]1F (stereo partly specified) |
